For 27 molecules, IC50 results are on record in US11820766B2, “Monoacylglycerol lipase modulators” (Janssen Pharmaceutica NV, priority 2018, dated 2023).

Structures are written as SMILES.

The target in the first assay is T1, human MGL from HeLa cells (Homo sapiens, UniProt Q99685).
T1 construct: combining endogenously expressed MGL from HeLa cells with test compounds; endogenous in cells; host or cells: HeLa cells / cell homogenates
T1 sequence (Q99685 1-303): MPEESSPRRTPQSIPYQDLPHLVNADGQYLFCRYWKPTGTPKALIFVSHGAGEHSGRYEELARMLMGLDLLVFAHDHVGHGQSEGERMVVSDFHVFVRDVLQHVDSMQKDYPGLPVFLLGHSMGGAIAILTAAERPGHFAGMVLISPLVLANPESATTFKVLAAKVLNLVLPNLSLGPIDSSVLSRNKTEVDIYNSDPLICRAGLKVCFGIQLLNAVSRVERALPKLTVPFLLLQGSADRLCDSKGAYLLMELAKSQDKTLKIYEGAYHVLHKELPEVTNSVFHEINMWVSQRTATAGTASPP
The assay can be described thus: In vitro MGL activity assay: [glycerol-1,3-3H]-oleyl glycerol cleavage by MGL from HeLa cells. It counts as biochemical. To be noted: 300 nM [Glycerol-1,3-3H]-oleyl glycerol, one hour. From the text:
MGL is the predominant hydrolase in HeLa cells/cell homogenates.
`C[C@H]1c2nn(C)c(-c3cc(F)c(F)c(F)c3)c2CCN1C(=O)c1nn(C)c2ncccc12` [Example 427, [(7S)-2,7-Dimethyl-3-(3,4,5-trifluorophenyl)-5,7-dihydro-4H-pyrazolo[3,4-c]pyridin-6-yl]-(1-methylpyrazolo[3,4-b]pyridin-3-yl)methanone] registered a half-maximal inhibitory concentration (IC50) of 28.6 nM.
Molecule `C[C@H]1c2nn(C)c(-c3cc(F)c(F)c(F)c3)c2CCN1C(=O)c1n[nH]c2cc(F)ccc12` [Example 363, [(7S)-2,7-Dimethyl-3-(3,4,5-trifluorophenyl)-5,7-dihydro-4H-pyrazolo[3,4-c]pyridin-6-yl]-(6-fluoro-1H-indazol-3-yl)methanone] returned a half-inhibitory concentration (IC50) of 44.1 nM. Against the preceding molecule, the IC50 is about 1.5-fold higher.
The same measure, in the same setting: the value for `[2H]c1cnc2cc(C(=O)N3CCc4c(nn(C)c4-c4cc(F)c(F)c(F)c4)[C@@H]3C)ccc2n1` [Example 483, (2-Deuterioquinoxalin-6-yl)-[(7S)-2,7-dimethyl-3-(3,4,5-trifluorophenyl)-5,7-dihydro-4H-pyrazolo[3,4-c]pyridin-6-yl]methanone] was 10.2 nM; that for `C[C@H]1c2nn(C)c(-c3cc(F)c(F)c(F)c3)c2CCN1C(=O)c1cnc2c(c1)CCCO2` [Example 563, 3,4-Dihydro-2H-pyrano[2,3-b]pyridin-6-yl-[(7S)-2,7-dimethyl-3-(3,4,5-trifluorophenyl)-5,7-dihydro-4H-pyrazolo[3,4-c]pyridin-6-yl]methanone] was 329 nM.
`C[C@H]1c2nn(C)c(-c3ccc4ccoc4c3)c2CCN1C(=O)c1ccc2ncccc2c1` [Example 532, [(7S)-3-(Benzofuran-6-yl)-2,7-dimethyl-5,7-dihydro-4H-pyrazolo[3,4-c]pyridin-6-yl]-(6-quinolyl)methanone] yielded a 50% inhibitory concentration (IC50) of 65 nM.
`C[C@H]1c2nn(C)c(-c3cc(F)c(F)c(F)c3)c2CCN1C(=O)c1ccc2c(c1)OCCC2` [Example 582, Chroman-7-yl-[(7S)-2,7-dimethyl-3-(3,4,5-trifluorophenyl)-5,7-dihydro-4H-pyrazolo[3,4-c]pyridin-6-yl]methanone]: the 50% inhibitory concentration (IC50) amounted to 7.52 nM.
The molecule `CC1CC1c1c(C(=O)N2CCc3c(nn(C)c3-c3cc(F)c(F)c(F)c3)[C@@H]2C)cnn1C` (stereo partly drawn) [Example 341, ((S)-2,7-Dimethyl-3-(3,4,5-trifluorophenyl)-2,4,5,7-tetrahydro-6H-pyrazolo[3,4-c]pyridin-6-yl)(1-methyl-cis-5-(2-methylcyclopropyl)-1H-pyrazol-4-yl)methanone] showed an IC50 of 9.53 nM.
Molecule `C[C@H]1c2nn(C)c(-c3cc(F)c(F)c(F)c3)c2CCN1C(=O)c1cccc2oc(=O)n(C)c12` [Example 585, 4-[(7S)-2,7-Dimethyl-3-(3,4,5-trifluorophenyl)-5,7-dihydro-4H-pyrazolo[3,4-c]pyridine-6-carbonyl]-3-methyl-1,3-benzoxazol-2-one] registered a half-maximal inhibitory concentration (IC50) of 25.4 nM. Against the preceding molecule, the IC50 is about 2.7-fold higher.
`Cc1cnc2c(C(=O)N3CCc4c(nn(C)c4-c4cc(F)c(F)c(F)c4)[C@@H]3C)ncn2c1` [Example 461, [(7S)-2,7-Dimethyl-3-(3,4,5-trifluorophenyl)-5,7-dihydro-4H-pyrazolo[3,4-c]pyridin-6-yl]-(3-methylimidazo[1,5-a]pyrimidin-8-yl)methanone] returned a half-maximal inhibitory concentration (IC50) of 1010 nM.
With `Cc1ccc2nc(C)c(C(=O)N3CCc4c(nn(C)c4-c4cc(F)c(F)c(F)c4)[C@@H]3C)n2c1` [Example 405, (2,6-Dimethylimidazo[1,2-a]pyridin-3-yl)-[(7S)-2,7-dimethyl-3-(3,4,5-trifluorophenyl)-5,7-dihydro-4H-pyrazolo[3,4-c]pyridin-6-yl]methanone], inhibition was half-maximal at 280 nM (IC50).
For the molecule `C[C@H]1c2nn(C)c(-c3cc(F)c(F)c(F)c3)c2CCN1C(=O)c1cnn(C)c1C1CC1(F)F` (single isomer, unassigned) [Example 338, (5-((S*)-2,2-Difluorocyclopropyl)-1-methyl-1H-pyrazol-4-yl)((S)-2,7-dimethyl-3-(3,4,5-trifluorophenyl)-2,4,5,7-tetrahydro-6H-pyrazolo[3,4-c]pyridin-6-yl)methanone], the IC50 was 14.2 nM.
In turn, `C[C@H]1c2nn(C)c(-c3cc(F)c(F)c(F)c3)c2CCN1C(=O)c1cccn2ncc(F)c12` [Example 377, [(7S)-2,7-Dimethyl-3-(3,4,5-trifluorophenyl)-5,7-dihydro-4H-pyrazolo[3,4-c]pyridin-6-yl]-(3-fluoropyrazolo[1,5-a]pyridin-4-yl)methanone] returned an IC50 of 4.68 nM.

The same assay, now with this note: 300 nM [Glycerol-1,3-3H]-oleyl glycerol, one hour incubation.
Consider `C[C@H]1c2nn(C)c(-c3cc(F)cc(F)c3)c2CCN1C(=O)c1cc2nccnc2cc1F` [Example 171, (S)-(3-(3,5-Difluorophenyl)-2,7-dimethyl-2,4,5,7-tetrahydro-6H-pyrazolo[3,4-c]pyridin-6-yl)(7-fluoroquinoxalin-6-yl)methanone], for which the IC50 amounted to 13 nM.
In turn, `C[C@H]1c2nn(C)c(-c3cc(F)c(F)c(F)c3)c2CCN1C(=O)c1ccccc1OC(F)(F)F` [Example 263, [(7S)-2,7-Dimethyl-3-(3,4,5-trifluorophenyl)-5,7-dihydro-4H-pyrazolo[3,4-c]pyridin-6-yl]-[2-(trifluoromethoxy)phenyl]methanone] yielded an IC50 of 28.3 nM.
`C[C@H]1c2nn(C)c(-c3cc(F)cc(F)c3)c2CCN1C(=O)c1ccccc1-n1nccn1` [Example 147, (S)-(2-(2H-1,2,3-Triazol-2-yl)phenyl)(3-(3,5-difluorophenyl)-2,7-dimethyl-2,4,5,7-tetrahydro-6H-pyrazolo[3,4-c]pyridin-6-yl)methanone] gave an IC50 of 71.7 nM.
In the case of `CC1c2nn(C)c(-c3cc(F)cc(F)c3)c2CCN1C(=O)c1ccc2nccnc2c1` (stereo not drawn) [Example 167, (3-(3,5-Difluorophenyl)-2,7-dimethyl-2,4,5,7-tetrahydro-6H-pyrazolo[3,4-c]pyridin-6-yl)(quinoxalin-6-yl)methanone], the half-maximal inhibitory concentration (IC50) is 25.1 nM. Compared with the last molecule, the IC50 is about 2.9-fold lower.
`Cn1nc2c(c1-c1ccccc1)CCN(C(=O)c1cccc3c1ccn3C)C2` [Example 51, (1-Methyl-1H-indol-4-yl)(2-methyl-3-phenyl-2,4,5,7-tetrahydro-6H-pyrazolo[3,4-c]pyridin-6-yl)methanone] came in with an IC50 of 15.6 nM.
Take `C[C@H]1c2nn(C)c(-c3cc(F)c(F)c(F)c3)c2CCN1C(=O)c1cncc(-n2cccn2)c1` [Example 318, [(7S)-2,7-Dimethyl-3-(3,4,5-trifluorophenyl)-5,7-dihydro-4H-pyrazolo[3,4-c]pyridin-6-yl]-(5-pyrazol-1-yl-3-pyridyl)methanone]: half-maximal inhibition (IC50) required 178 nM.
The same measure, in the same setting: the value for `COc1ccc(C(=O)N2CCc3c(nn(C)c3-c3ccccc3)C2)cc1OC` [Example 9, (3,4-Dimethoxyphenyl)(2-methyl-3-phenyl-2,4,5,7-tetrahydro-6H-pyrazolo[3,4-c]pyridin-6-yl)methanone] was 441 nM.
`COc1ccc(C(=O)N2CCc3c(nn(C)c3-c3cc(F)c(F)c(F)c3)[C@@H]2C)c(C)n1` [Example 306, [(7S)-2,7-Dimethyl-3-(3,4,5-trifluorophenyl)-5,7-dihydro-4H-pyrazolo[3,4-c]pyridin-6-yl]-(6-methoxy-2-methyl-3-pyridyl)methanone] showed an IC50 of 189 nM.
Turning to `Cc1cnc2cc(C(=O)N3CCc4c(nn(C)c4-c4cc(F)c(F)c(F)c4)[C@@H]3C)ccc2n1` [Example 243, (S)-(2,7-Dimethyl-3-(3,4,5-trifluorophenyl)-2,4,5,7-tetrahydro-6H-pyrazolo[3,4-c]pyridin-6-yl)(2-methylquinoxalin-6-yl)methanone], half-maximal inhibition (IC50) was put at 25 nM.
Regarding `Cc1cc(C(=O)N2CCc3c(nn(C)c3-c3cc(F)c(F)c(F)c3)[C@@H]2C)cc(-n2nccn2)c1` [Example 286, [(7S)-2,7-Dimethyl-3-(3,4,5-trifluorophenyl)-5,7-dihydro-4H-pyrazolo[3,4-c]pyridin-6-yl]-[3-methyl-5-(triazol-2-yl)phenyl]methanone], inhibition was half-maximal at 2.27 nM (IC50).
The same measure, in the same setting: for `C[C@H]1c2nn(C)c(-c3cc(F)c(F)c(F)c3)c2CCN1C(=O)c1cnn(C)c1C(F)(F)F` [Example 198, (S)-(2,7-Dimethyl-3-(3,4,5-trifluorophenyl)-2,4,5,7-tetrahydro-6H-pyrazolo[3,4-c]pyridin-6-yl)(1-methyl-5-(trifluoromethyl)-1H-pyrazol-4-yl)methanone] the value was 14 nM; for `Cn1nc2c(c1-c1ccccc1)CCN(C(=O)c1cnn(C)c1C1CC1)C2` [Example 22, (5-Cyclopropyl-1-methyl-1H-pyrazol-4-yl)(2-methyl-3-phenyl-2,4,5,7-tetrahydro-6H-pyrazolo[3,4-c]pyridin-6-yl)methanone], 683 nM.
As for `COc1ccccc1C(=O)N1CCc2c(nn(C)c2-c2cc(F)c(F)c(F)c2)[C@@H]1C` [Example 259, [(7S)-2,7-Dimethyl-3-(3,4,5-trifluorophenyl)-5,7-dihydro-4H-pyrazolo[3,4-c]pyridin-6-yl]-(2-methoxyphenyl)methanone], the half-inhibitory concentration (IC50) is 12.6 nM.
`C[C@H]1c2nn(C)c(-c3cc(F)cc(F)c3)c2CCN1C(=O)c1ccc(F)c(OCCF)c1` [Example 144, (S)-(3-(3,5-Difluorophenyl)-2,7-dimethyl-2,4,5,7-tetrahydro-6H-pyrazolo[3,4-c]pyridin-6-yl)(4-fluoro-3-(2-fluoroethoxy)phenyl)methanone] had an IC50 of 55 nM. This IC50 lies about 4.4-fold higher than the previous one.
`C[C@H]1c2nn(C)c(-c3cc(F)c(F)c(F)c3)c2CCN1C(=O)c1nccc2[nH]ccc12` [Example 216, (S)-(2,7-Dimethyl-3-(3,4,5-trifluorophenyl)-2,4,5,7-tetrahydro-6H-pyrazolo[3,4-c]pyridin-6-yl)(1H-pyrrolo[3,2-c]pyridin-4-yl)methanone] gave an IC50 of 26.2 nM. Compared with the last molecule, the IC50 is about 2.1-fold lower.
